From patent publication US5262403A, “Glycosaminoglycan derivatives and their use as inhibitors of tumor invasiveness of metastatic profusion-II” (priority 1990, dated 1993)
Entries after “also recorded” stand apart in the source; their conditions may differ.

Legend:
B16-BL6 melanoma cells [1] = assay: 3H-thymidine incorporation, growth of melanoma cells in tissue culture; format: cell-based, mouse; conditions: with or without 5% fetal bovine serum; 48 h exposure
Protocol: FIG. 7: Effects of chemically modified heparins on the incorporation of ^3 H-thymidine to B16-BL6 melanoma cells grown in tissue culture.
In order to assess a possibility that the effects of modified heparins on the blood-borne lung colonization of B16 melanoma cells were due to their direct toxic effects on the cells, the growth of B16 melanoma in the presence or absence of modified heparins were examined in vitro. B16-BL6 melanoma cells were seeded in multiwell tissue culture plates at a density 10,000 per each 1 cm well in the presence or absence of 5% fetal bovine serum. Six hours later, modified heparins were added, then 24 hours later, ^3 H thymidine was added to a final concentration 5 uCi/ml. After further 24 hour incubation, trichloroacetic acid-insoluble materials were collected, dissolved in 1M sodium hydroxide solution, neutralized and counted on a liquid scintillation counter.

B16 melanoma heparanase [2] = assay: Solid-phase assay for heparanase inhibitors (3H-HS-agarose beads); format: biochemical, mouse; conditions: B16-BL6 lysate of 10^6 cells, various concentrations, 37° C.
Protocol: The measurements were performed by incubating B16-BL6 melanoma heparanase. The measurements were performed by incubating B16-BL6 melanoma cell lysates equivalent to 10^6 cells with a suspension of ^3 H-HS-agarose beads prepared by partial N-desulfation and ^3 H-acetylation (approximately 20% suspension), and various concentrations of heparanase inhibitors at 37° C. for 24 hr with gentle mixing.
Source of Heparanase. Highly invasive mouse B16 melanoma (B16-BL6) cells were provided by Dr. I. J. Fidler, (M.D. Anderson Hospital, Houston, Tex.) and were cultured as previously described (Irimura et al., (1983a) and Irimura et al. (1984)). Cell extracts were prepared in 5 mM Tris-HCl buffer, pH 7.4, containing 0.25M sucrose, 50 μM calcium chloride, 10 μM phenylmethylsulfonylfluoride, and 0.2% Nonidet P-40 (Irimura et al., (1983). The melanoma extracts were stored frozen at -80° C. and used as crude heparanase.
Preparation of Solid-phase Substrates for Heparanase and Inhibitor Assays.
Solid-phase Assays for Heparanase and Heparanase Inhibitors. ^3 H-HS-agarose was suspended in Dulbecco's phosphate buffered saline (DPBS) at about 20% (v/v). The incubation conditions for the solid-phase assay were identical to those of the HPLC assay, except that 75 μl of the ^3 H-HS-agarose suspension was used instead of the HS so that the incubation mixture consisted of B16 melanoma extract, chemically modified heparins, 4×heparanase assay buffer, and ^3 H-HS-agarose suspension. After incubation, the reaction mixture was placed on ice, chilled 5% trichloroacetic acid (50 ul) added, the mixture incubated for 10 min, and centrifuged. Radioactivity in the supernatant and the pellet was determined separately after mixing with Hydrofluor.

[3] = system: vascular smooth muscle cells; conditions: cited from earlier work
B16-BL6 melanoma cells [4] = assay: Experimental blood-borne lung colonization, melanoma cells preincubated with heparins; format: in vivo, C57BL/6 mice; conditions: for Number of colonies (median), Exp 1 / Number of colonies (median), Exp 2 / Number of colonies, Exp 1 (individual mice): cells incubated with 500 ug/ml at 4° C. for 2 hr before i.v. injection, lung, 20 days; for Number of colonies, Exp 1 (individual mice): 9 mice/group
Protocol: Experimental Metastatic Lung Colonization of Melanoma Cells. Male C57BL/6 mice 4 to 6 weeks old were obtained from Charles River, Inc. (Kingston, Md.) and quarantined for 2 weeks. Animals were fed normal rodent chow and unchlorinated spring water. B16-BL6 cells were grown to subconfluence, detached from plastic dishes by incubating in 2 mM EDTA, 0.14M NaCl and 10 mM sodium phosphatebuffer, pH 7.4, for 5-10 min, and suspended in a 1:1 mixture of Dulbecco's modified minimum essential medium and Ham's F12 medium. […] Treated or untreated cells (5×10^4 /0.1 ml) were injected intravenously to each mouse. Mice were killed 20 days later and autopsied. The numbers of pulmonary tumor nodules were counted after the lung was perfused via the trachea with 4% formalin in Dulbecco's phosphate buffered saline. Extrapulmonary tumor formation was assessed in each animal and recorded.

[5] = system: rat mammary adenocarcinoma MTF7; assay: Experimental metastasis of rat mammary adenocarcinoma, rats treated i.v.; format: in vivo, Fischer (F344/CDL) rats; conditions: for Lung Metastases per rat, Median No.: 0.1 ml of 10 mg/ml i.v. 8 h before and 16 h after 5×10^4 MTF7 cells, 30 days; for effectiveness against lung tumor colonies of mammary carcinoma, in words: i.v. treatment of rats
Protocol: Inbred 8-week-old female Fischer (F344/CDL) rats were supplied by the Charles River Breeding Laboratories (Kingston, N.Y.). Animals were quarantined for 7 days before use and feed standard rodent chow and unchlorinated spring water ad libitum. They were maintained under guidelines set forth by the University of Texas M. D. Anderson Cancer Center and the Institute of Laboratory Animal Resources, National Research Council. […] The cells grown at 37° C. in an atmosphere of 5% CO2 in humidified air in an 1:1 mixture of Dulbecco's modified minimum essential media and Ham's F12 media containing 10% fetal bovine serum and no antibiotics in 100 mm-diam. tissue culture plates.
The cells used in this study were in exponential growth phase and were from passages 14 to 20 in vitro and were free of mycoplasma and viral contamination.
Rats (9 per group) were injected i.v. (lateral tail vein) with 0.1 ml of 10 mg/ml solution of heparin, N-acetylated-N-desulfated heparin, or carboxyl-reduced heparin. Eight hours later, the same rats were injected i.v. with 5×10^4 MTF7 mammary carcinoma cells suspended in 0.2 ml serum-free media. Sixteen hours after injections of carcinoma cells, rats were treated with unmodified or chemically modified heparin at the same dose as the previous treatment 8 hours prior to the injection of carcinoma cells.
Rats were killed 30 days after the initial injection of carcinoma cells and examined for the number of lung tumor colonies, that should represent the degree of metastatic spread of mammary carcinoma cells.

B16 melanoma cells = assay: Blood-borne lung colonization, mice treated i.v. with heparins; format: in vivo, C57BL/6 mice; conditions: for Number of lung colonies, Median: 0.1 ml of 5.0 mg/ml i.v. 4 hr before and 20 hr after inoculation of 5×10^4 cells, 20 days; for establishment of metastatic tumor colonies in the lungs, in words: i.v. treatment of mice
Protocol: Chemically modified heparins were tested in mice as inhibitors of blood-borne lung colonization by melanoma cells. Male C57BL/6 mice 4 to 6 weeks old were obtained from Charles River, Inc. and quarantined for 2 weeks. The mice were intravenously inoculated with 5×10^4 B16-BL melanoma cells. Treated mice were intravenously injected with 0.1 ml each of heparin or chemically modified heparin (5.0 mg/ml) 4 hr before and 20 hr after inoculation with the melanoma cells. The chemically modified heparins used were: N-acetylated N-desulfated heparin; carboxyl-reduced heparin; and N-resulfated N, O-desulfated heparin.
Mice were killed 20 days after tumor inoculation and autopsied. The numbers of pulmonary tumor colonies were counted after the lungs were perfused via the trachea with 4% formalin in Dulbecco's phosphate-buffered saline.

blood coagulation = assay: Anticoagulation activity by USP standard assay; conditions: % of the anticoagulation activity of unmodified heparin
B16-BL6 melanoma = assay: Release of 35S-labeled substances from lung capillary endothelial extracellular matrix by melanoma cells; format: cell-based, mouse; conditions: for degradation of sulfated molecules of endothelial matrix by melanoma cells: 35S-labeled matrix, B16-BL6 cells, 37° C., 18 hours
Protocol: FIG. 6: Effects of chemically modified heparins on the release of ^35 S labeled substances from the extracellular matrix of mouse lung capillary endothelial cells in vitro. […] (See: Nakajima et al., Science 220:611-613, 1983, for the methods.)
Effects of chemically modified heparins on the release of ^35 S-labeled polysaccharides from the extra-cellular matrix of mouse lung endothelial cells were studied in vitro. The endothelial cells isolated from mouse lung capillary were grown in the presence of ^35 S-sulfate, and the extracellular matrix-like material was isolated on multiwell plastic tissue culture plates by hypotonic lysis of the cells. The matrices (1 cm diameter) were incubated with mouse B16-BL6 melanoma at 37° C. for 18 hours. The released radioactivity was counted.

B16 melanoma heparanase [6] = assay: HPLC assay for heparanase inhibition (14C-HS degradation, gel-permeation chromatography); format: biochemical, mouse; conditions: 1 mg/ml in incubation mixture, crude heparanase of 10^6 B16-BL6 cells, 37° C., 6 h
Protocol: A high-speed gel-permeation chromatography system was equipped with a 0.70×75 cm column of Fractogel TSK-HW55(S). Elution was performed with 0.2M NaCl at a flow rate of 1.0 ml/min at 55° C. Each 0.5-ml fraction corresponding to 30-sec elution was collected, mixed with 3 ml of Hydrofluor and its radioactivity determined. Panel A, ^14 C-HS was incubated with heat-inactivated crude heparanase (10^6 B16-BL6-melanoma cell equivalents) at 37° C. for 6 h, and analyzed. B, same incubation as A except that the enzyme was not heat-inactivated.
High-speed gel permeation chromatography was performed as described previously (Irimura et al., (1983a) Anal. Biochem., V 130, pp 461-468) using a Constametric III (LDC-Milton Roy, Riviera Beach, Fla.) with a single 0.7×75 cm stainless steel column packed with Fractogel TSK HW-55(S). Elution was accomplished with 0.2M sodium chloride at flow rates of 1.0 ml/min or 0.75 ml/min. Absorption at 210 nm was monitored for the analogs of chemically modified heparin. For the qualitative examination of radiolabeled HS-degradation products, each fraction corresponding to 30-sec elution was collected into plastic scintillation vials, and radioactivity in each vial was determined after the fraction was mixed with 3.0 ml of Hydrofluor (National Diagnostics, Somerville, N.J.).
Cell extracts were prepared in 5 mM Tris-HCl buffer, pH 7.4, containing 0.25M sucrose, 50 μM calcium chloride, 10 μM phenylmethylsulfonylfluoride, and 0.2% Nonidet P-40 (Irimura et al., (1983). The melanoma extracts were stored frozen at -80° C. and used as crude heparanase.
High-Performance Liquid Chromatography [HPLC] Assay for Heparanase. Fifty microliters of melanoma extract (equivalent to 10^6 cells) were mixed with chemically modified heparin (5 mg/ml in water), 50 μl of 4×heparanase assay buffer (0.4 sodium phosphate buffer, pH 5.8, containing 0.4% Triton X-100, 0.6M sodium chloride, and 0.4% sodium azide) and about 3000 cpm of ^14 C-HS.

B16-F10 melanoma cells = assay: Invasion of organ-cultured lung tissues by melanoma cells; format: cell-based; conditions: organ-cultured minced mouse lung
Source text: FIG. 10: Effects of modified heparins on the B16-F10 melanoma cell-invasionof isolated mouse lung tissues in vitro. The experimental conditions were the same as the adhesion experiments. The invaded cells were counted on 4 μm sections under a light microscope. (See Nicolson et al., (1985) Invasion Metastasis, 5:144-158, for detailed methods.)
The effects of these glycosaminoglycan derivates on organ-specific adhesion and invasion of B16 melanoma cells were studied by using primary organ culture techniques in vitro. Minced lung tissues (0.5-1.0 cubic mm) from C57BL/6 mice were placed in glass vials and incubated in HEPES-buffered Dulbecco's modified minimum essential media containing 10% fetal bovine serum and 50 ug/ml gentamycin under continuous gyration at 66 rpm. After the medium was changed to a fresh medium without gentamycin, B16-F10 melanoma cells were added at a final concentration of 100,000/ml with or without various modified heparins. After various incubation times, the tissues were fixed in buffered formalin and processed for light microscopy. The adhesion and invasion of the tumor cells were examined on […] sections stained with hematoxylin and eosin.

B16-BL6 cells = assay: Adhesion of melanoma cells to endothelial cell monolayers; format: cell-based, mouse; conditions: B16 cells pretreated 2 hrs, continuous presence of compounds, 37° C.
Protocol: FIG. 8: Adhesion of B16 melanoma cells to bovine aortic endothelial cell monolayers. FIG. 8(a) B16 melanoma cells were pretreated with modified heparins at room temperature for 2 hrs, and the adhesion assays were performed in the continuous presence of these compounds at 37° C. FIG. 8(b) Endothelial cells were pretreated with modified heparins at 37° C. for 2 hrs, then adhesion assays were performed. (See Nicolson and Custead, (1985) Cancer Res. 45:331-336, for the methods
One of the most critical steps in the tumor cell-microvascular endothelium interaction during metastatic lung colonization of melanoma cells is the adhesive interaction of melanoma cells with endothelial cells. The effects of modified heparins on the adhesion of B16 melanoma to the cell monolayer and to the extracellular matrix of lung capillary endothelial cells were studied in vitro. The endothelial cells were grown in tissue culture and the extracellular matrices were isolated as described in Example 8.

melanoma heparanase = conditions: cited from earlier work

For N-acetylated N-desulfated heparin, the “incorporation of 3H-thymidine to B16 cells” value (“incorporation of 3H-thymidine” below) (B16-BL6 melanoma cells [1]) is given as “no significant effects”, the “heparanase inhibitory activity (solid-phase assay, release of 3H-HS fragments)” value (shortened to “heparanase inhibitory activity”) (B16 melanoma heparanase [2]) is given as “partially restored” and the “anti-proliferative (growth inhibitory) activity” value [3] is given as “retained full growth inhibitory properties”. For the same substance, the “Number of colonies (median), Exp 1” value (B16-BL6 melanoma cells [4]) was 43, the “Number of colonies (median), Exp 2” value (B16-BL6 melanoma cells [4]) was 5 and the “Number of colonies, Exp 1 (individual mice)” value (“Number … (individual mice)” below) (B16-BL6 melanoma cells [4]) was 199. The “Lung Metastases per rat, Median No.” value [5] was 29, the “effectiveness against lung tumor colonies of mammary carcinoma, in words” value (“effectiveness” below) [5] was “also effective” and the “Number of lung colonies, Median” value (B16 melanoma cells) was 60. For the same substance, the “anticoagulation activity relative to unmodified heparin” value (blood coagulation) was “less than 1%”.

In the case of “N-resulfated N- and O-desulfated heparin”, the “heparanase inhibitory activity” value (B16 melanoma heparanase [2]) is reported as “partial restoration of activity”, the “degradation of sulfated molecules of endothelial matrix by melanoma cells” value (shortened to “degradation … by melanoma cells”) (B16-BL6 melanoma) is reported as “effectively blocked the degradation” and the “Number of colonies (median), Exp 2” value (B16-BL6 melanoma cells [4]) is reported as 8. The “Number of lung colonies, Median” value (B16 melanoma cells) was 36, the “anticoagulation activity relative to unmodified heparin” value (blood coagulation) was “less than 1%” and the “inhibition of degradation of HS by heparanase (HPLC assay)” value (“inhibition of degradation of HS” for short) (B16 melanoma heparanase [6]) was “partially restored”.

For “N-acetylated N- and O-desulfated heparin”, the “heparanase inhibitory activity” value (B16 melanoma heparanase [2]) was “did not, however, restore the inhibitory activity”.

In the case of completely N-desulfated heparin, the “heparanase inhibitory activity” value (B16 melanoma heparanase [2]) is listed as “failed to how any inhibitory activity”, the “anti-proliferative (growth inhibitory) activity” value [3] is listed as “lost their anti-proliferative activity” and the “inhibition of degradation of HS” value (B16 melanoma heparanase [6]) is listed as “failed to inhibit degradation”.

In the case of “N-desulfated N-resulfated heparin [reference compound]”, the “anti-proliferative (growth inhibitory) activity” value [3] is listed as “retained full growth inhibitory properties”.

With N- and O-desulfated heparin the “heparanase inhibitory activity” value (B16 melanoma heparanase [2]) was “failed to how any inhibitory activity” and the “inhibition of degradation of HS” value (B16 melanoma heparanase [6]) was “failed to inhibit degradation”.

In the case of carboxy-reduced heparin, the “incorporation of 3H-thymidine” value (B16-BL6 melanoma cells [1]) is reported as “no significant effects”, the “heparanase inhibitory activity” value (B16 melanoma heparanase [2]) is reported as “weaker inhibitory activity than heparin” and the “degradation … by melanoma cells” value (B16-BL6 melanoma) is reported as “effectively blocked the degradation”. The “Number of colonies (median), Exp 1” value (B16-BL6 melanoma cells [4]) was 29, the “Number of colonies (median), Exp 2” value (B16-BL6 melanoma cells [4]) was 51 and the “Number … (individual mice)” value (B16-BL6 melanoma cells [4]) was 53. For the same substance, the “Lung Metastases per rat, Median No.” value [5] was 25, the “effectiveness” value [5] was “also effective” and the “Number of lung colonies, Median” value (B16 melanoma cells) was 6. The “establishment of metastatic tumor colonies in the lungs, in words” value (B16 melanoma cells) was “most effective” and the “anticoagulation activity relative to unmodified heparin” value (blood coagulation) was “less than 1%”.

For Heparin [reference compound], the “invasion of B16 melanoma cells to lung tissues” value (B16-F10 melanoma cells) was “inhibited invasion”, the “time course of adhesion to endothelial cell monolayer, melanoma cells pretreated” value (B16-BL6 cells) was “None of these compounds, including intact heparin, significantly altered” and the “incorporation of 3H-thymidine” value (B16-BL6 melanoma cells [1]) was “no significant effects”. For the same substance, the “heparanase inhibitory activity” value (B16 melanoma heparanase [2]) was “consistent with those of the HPLC assay”, the “degradation … by melanoma cells” value (B16-BL6 melanoma) was “inhibited the degradation” and the “spontaneous (non-enzymatic) release of 35S labeled macromolecules” value (B16-BL6 melanoma; in the absence of B16 melanoma cells) was “apparently induced spontaneous release; also recorded: induced non-enzymatic release”. For the same substance, the “inhibition of HS degradation by B16 cell extracts” value (melanoma heparanase) was “inhibited HS degradation”, the “number of visible melanoma colonies in lung, in words” value (B16-BL6 melanoma cells [4]; 20 days after injection of preincubated cells) was “greater” and the “Number of colonies (median), Exp 1” value (B16-BL6 melanoma cells [4]) was 16. The “Number of colonies (median), Exp 2” value (B16-BL6 melanoma cells [4]) was 0, the “Number … (individual mice)” value (B16-BL6 melanoma cells [4]) was 174 and the “Lung Metastases per rat, Median No.” value [5] was 9. The “effectiveness” value [5] was “most effective”, the “Number of lung colonies, Median” value (B16 melanoma cells) was 30 and the “establishment of metastatic tumor colonies in the lungs, in words” value (B16 melanoma cells) was “inhibited formation of lung metastases”. For the same substance, the “inhibition of degradation of HS” value (B16 melanoma heparanase [6]) was “no degradation was observed”.
